Values of other authors as cited in article PMC5669518 (Biochemistry and Biophysics Reports, 2015).

Tested on: NEU2
Details: active form of oseltamivir; ref [16], [17]

SMILES: CCOC(=O)C1=C[C@@H](OC(CC)CC)[C@H](NC(C)=O)[C@@H](N)C1 [oseltamivir]
- Inhibitory effect on NEU2: does not exhibit the inhibitory effect
